# Where two headings read alike, the source gives them in different places.
# How the values were obtained:
# HIV1 IIIb = assay: microbe, parasite or virus in culture; assay type: cell-based; conditions: Human immunodeficiency virus 1, IIIB; for viability at 10 µg/mL: 10 ug/ml; for viability at 0.1 µg/mL: 0.1 ug/ml; for viability at 56.7 µg/mL: 56.7 ug/ml; for viability at 48.4 µg/mL: 48.4 ug/ml; for viability at 2.4 µg/mL: 2.4 ug/ml
# Excerpt: In-vitro Screening Anti--HIV XTT Assay
# This assay, which is available to the public by the National Cancer Institute, utilizes colorimetry based on the production of a colored formazin from a tetrazolium salt by viable cells, to develop a safe, rapid and quantitative measure of HIV cytopathology. The assay is a modification of the previously described screening method for the detection of anti-tumor drug cytotoxicity (D. A. Scudiero, et al, Cancer Res, 48, 4827-4833 (1988)). It involves the plating of susceptible human "host" cells with and without virus in microculture plates, adding various concentrations of the respective test compounds, incubating the plates for seven days, during which time infected, non-drug treated control cells are largely or totally destroyed by the virus. The number of remaining viable cells are determined utilizing a calorimetric endpoint. A beneficial antiviral effect is indicated by a response % grater than the virus kill %, with 100% being optimal.
# Anti-viral effect: Response (Viable Cells, determined by colorometric
# absorbance of formazan dye produced) as % of uninfected controls
# Virus Source: HIV1 IIIb; C, Virus producing H9 cells; V, cell free virus
# Virus Kill: Infected untreated cells as % of uninfected cell controls
# *: Culture redosed with compound after 3 days
# HIV-2 protease = assay: HIV protease cleavage of nonapeptide (HPLC); assay type: biochemical; conditions: 0.5 μl of 10 μg/μl inhibitor in DMSO per 10 μl reaction; pH 6.5, room temperature; pentapeptide product relative to DMSO control; sampled at ca. 16 and 40 hr (time not given)
# Description: Activity Against HIV Protease
# The assay for proteolyic activity is a modified version of that previously described by Copeland et al., Gene Anal. Tech., 5:109-115 (1988). For each assay to be performed 2 microliters of protease solution (ca. 100 ng) is added to 3 μg of nonapeptide (Val-Ser-Gln-Asn-Tyr-Pro-Ile-Val-Gln-NH2) in 8 μl of 200 mM sodium phosphate, 1 M NaCl, 5% glycerol, 0.25% Nonidet-40, at pH 6.5. This affords a stock solution containing 10 μl per number of reactions. This stock is aliquoted out in 10 μl portions to which 0.5 μl of DMSO (a control is run with each set of assays to compensate for minor experimental variations) or a DMSO solution containing 10 μg/μl of an inhibitor, i.e., any one of the compounds of the present invention, is added. The reactions were incubated at room temperature and 4 μl portions were removed at ca. 16 and 40 hr. intervals. HPLC analysis was performed on a 4.6×250 mm Lichrosorb RP-18 column eluted with a gradient of 0-40% acetonitrile in water (containing 0.05% TFA) over 30 min monitoring absorbance at 206 nm. Progress of the enzymatic cleavage was followed by monitoring the appearance of the pentapeptide (Val-Ser-Gln-Asn-Tyr-OH) cleavage product. The activity is expressed as the amount of the pentapeptide (Val-Ser-Gln-Asn-Tyr-OH) observed relative to the control reaction for that set of assays.
# Inhibition of HIV-2 protease
# porcine Renin = biological target: T1, porcine Renin (Sus scrofa, UniProt A0A287APG1); assay: Porcine Renin cleavage of porcine tetradecapeptide (HPLC); assay type: biochemical; conditions: 0.5 μl of 50 μg/μl inhibitor in DMSO in 50 μl; pH 6.00, room temperature, 70 min; relative to uninhibited control
# T1 construct: purchased Sigma
# Excerpt: Renin Activity: Porcine Renin Cleavage of Porcine Tetradecapeptide
# Proteolytic enzymes are ubiquitous in many living systems. Renin is an asparxyl protease found in mammals which is responsible for the regulation of blood pressure. Structural and functional similarities between Renin and retroviral proteases have been previously noted (Pearl, L. H., Taylor, W. R., (1987) Nature, 329, 351-354). Consequently, successful therapeutic inhibition of retroviral proteases depends on the ability of the inhibitor to inhibit the retroviral enzyme while having a greatly diminished effect on normally occurring enzymes like Renin. The failure to inhibit the desired enzyme selectively may have an adverse effect on normal biochemical functions. The similarity of Renin to retroviral proteases and its viral normal bodily function makes it an attractive system in which to examine inhibitory selectivity.
# Renin activity was determined by a method similar to that described above for the HIV protease. A solution containing 0.37 m unit (0.5 μl of stock solution containing 0.75 m unit/μl) of porcine Renin (Sigma) was added to 5 μg of porcine angiotensinogen in 50 μl of 0.1 M citrate-phosphate buffer (pH 6.00) containing 0.25% NP-40. A DMSO solution containing the inhibitor (0.5 μl of a 50 μg/μl solution) was added and the reaction was allowed to incubate at room temperature for 70 min. The entire mixture was analyzed by HPLC chromatographic analysis was perforemd on a 4.6×250 mm Lichrosorb RP-18 column eluting with a gradient of 0-50% acetonitrile in 0.02 M KH2 Po4 (pH 4.7) over 30 min monitoring absorbance at 206 nm. Appearance of both the tetrapeptide and the decapeptide products may be monitored under these conditions. Enzyme activity is expressed as the amount of tetrapeptide produced relative to an uninhibited control, and are summarized in Table 3 below.
# [1] = 168 h, read-out: Antiviral Effect (viable cells as % of uninfected controls), run 6, source V (cell free virus), virus kill 26.0%
# T1 sequence (A0A287APG1 24-407): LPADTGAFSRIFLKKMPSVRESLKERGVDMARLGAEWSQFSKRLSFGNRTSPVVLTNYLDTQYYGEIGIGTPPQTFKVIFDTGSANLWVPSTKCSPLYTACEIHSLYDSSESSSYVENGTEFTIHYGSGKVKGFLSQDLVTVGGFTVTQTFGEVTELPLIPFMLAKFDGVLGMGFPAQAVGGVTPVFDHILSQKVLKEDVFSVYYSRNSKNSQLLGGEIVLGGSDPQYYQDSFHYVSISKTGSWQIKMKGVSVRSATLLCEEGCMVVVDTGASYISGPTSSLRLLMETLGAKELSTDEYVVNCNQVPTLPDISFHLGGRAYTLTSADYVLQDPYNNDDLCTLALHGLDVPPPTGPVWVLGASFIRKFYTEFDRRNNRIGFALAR
structure (smiles),measurement,setting,value
"OC[C@H]1O[C@H]1COCc1ccccc1 [Example 14, (2R-cis)-3-(Benzyloxymethyl)oxirane Methanol]",viability at 1 µg/mL,"HIV1 IIIb; 168 h, read-out: Antiviral Effect (viable cells as % of uninfected controls), run 6, 1 ug/ml, source V (cell free virus), virus kill 50.0%",43.5%
same,viability at 10 µg/mL,"HIV1 IIIb; 168 h, read-out: Antiviral Effect (viable cells as % of uninfected controls), run 7, source V (cell free virus), virus kill 50.0%",49.5%
same,viability at 0.1 µg/mL,"HIV1 IIIb; 168 h, read-out: Antiviral Effect (viable cells as % of uninfected controls), run 8, source V (cell free virus), virus kill 16.0%",17.7%
same,viability at 0.1 µg/mL,"HIV1 IIIb; 168 h, read-out: Antiviral Effect (viable cells as % of uninfected controls), run 9, source V (cell free virus), virus kill 16.0%",20.6%
same,viability at 4.1 µg/mL,"HIV1 IIIb; 168 h, read-out: Antiviral Effect (viable cells as % of uninfected controls), run 10, 4.1 ug/ml, source V (cell free virus), virus kill 29.0%",28.8%
same,viability at 0.004 µg/mL,"HIV1 IIIb; 168 h, read-out: Antiviral Effect (viable cells as % of uninfected controls), run 11*, 0.004 ug/ml, source V (cell free virus), virus kill 25.0%, culture redosed with compound after 3 days",30%
same,viability at 0.1 µg/mL,"HIV1 IIIb; H9, 168 h, read-out: Antiviral Effect (viable cells as % of uninfected controls), run 1, source C (virus producing H9 cells), virus kill 18.0%",21.9%
same,viability at 10 µg/mL,"HIV1 IIIb; H9, 168 h, read-out: Antiviral Effect (viable cells as % of uninfected controls), run 2, source C (virus producing H9 cells), virus kill 17.0%",53.5%
same,viability at 10 µg/mL,"HIV1 IIIb; H9, 168 h, read-out: Antiviral Effect (viable cells as % of uninfected controls), run 3, source C (virus producing H9 cells), virus kill 17.0%",61%
same,viability at 0.1 µg/mL,"HIV1 IIIb; H9, 168 h, read-out: Antiviral Effect (viable cells as % of uninfected controls), run 4, source C (virus producing H9 cells), virus kill 10.0%",12.1%
same,viability at 10 µg/mL,"HIV1 IIIb; H9, 168 h, read-out: Antiviral Effect (viable cells as % of uninfected controls), run 5, source C (virus producing H9 cells), virus kill 10.0%",10.5%
same,Percent Control Cleavage of Nonapeptide HIV-1 Cleavage Site Fragment,HIV-2 protease,78%
CCCCCCCOC[C@H]1O[C@H]1CO [Example 17],viability at 11.3 µg/mL,"HIV1 IIIb; 168 h, read-out: Antiviral Effect (viable cells as % of uninfected controls), run 4, 11.3 ug/ml, source V (cell free virus), virus kill 40.0%",57.6%
same,viability at 56.7 µg/mL,"HIV1 IIIb; 168 h, read-out: Antiviral Effect (viable cells as % of uninfected controls), run 5, source V (cell free virus), virus kill 57.0%",102%
same,viability at 56.7 µg/mL,HIV1 IIIb; [1],69.2%
same,viability at 1.97 µg/mL,"HIV1 IIIb; 168 h, read-out: Antiviral Effect (viable cells as % of uninfected controls), run 7*, 1.97 ug/ml, source V (cell free virus), virus kill 28.0%, culture redosed with compound after 3 days",15.8%
same,viability at 113 µg/mL,"HIV1 IIIb; H9, 168 h, read-out: Antiviral Effect (viable cells as % of uninfected controls), run 1, 113 ug/ml, source C (virus producing H9 cells), virus kill 10.0%",31.1%
same,viability at 56.7 µg/mL,"HIV1 IIIb; H9, 168 h, read-out: Antiviral Effect (viable cells as % of uninfected controls), run 2, source C (virus producing H9 cells), virus kill 15.0%",53.7%
same,viability at 56.7 µg/mL,"HIV1 IIIb; H9, 168 h, read-out: Antiviral Effect (viable cells as % of uninfected controls), run 3, source C (virus producing H9 cells), virus kill 15.0%",83.1%
same,Percent Control Cleavage of Nonapeptide HIV-1 Cleavage Site Fragment,HIV-2 protease,66%
"CCCCCCCOC[C@@H]1O[C@@H]1CO [Example 18, (2R-cis)-3-(Heptyloxymethyl)oxirane Methanol]",viability at 9.65 µg/mL,"HIV1 IIIb; 168 h, read-out: Antiviral Effect (viable cells as % of uninfected controls), run 4, 9.65 ug/ml, source V (cell free virus), virus kill 40.0%",58.8%
same,viability at 48.4 µg/mL,"HIV1 IIIb; 168 h, read-out: Antiviral Effect (viable cells as % of uninfected controls), run 5, source V (cell free virus), virus kill 63.0%",89.8%
same,viability at 48.4 µg/mL,HIV1 IIIb; [1],49%
same,viability at 2.4 µg/mL,"HIV1 IIIb; 168 h, read-out: Antiviral Effect (viable cells as % of uninfected controls), run 7, source V (cell free virus), virus kill 20.0%",29.4%
same,viability at 2.4 µg/mL,"HIV1 IIIb; 168 h, read-out: Antiviral Effect (viable cells as % of uninfected controls), run 8*, source V (cell free virus), virus kill 25.0%, culture redosed with compound after 3 days",40.2%
same,viability at 96.5 µg/mL,"HIV1 IIIb; H9, 168 h, read-out: Antiviral Effect (viable cells as % of uninfected controls), run 1, 96.5 ug/ml, source C (virus producing H9 cells), virus kill 11.0%",38.6%
same,viability at 48.4 µg/mL,"HIV1 IIIb; H9, 168 h, read-out: Antiviral Effect (viable cells as % of uninfected controls), run 2, source C (virus producing H9 cells), virus kill 16.0%",30.7%
same,viability at 4.84 µg/mL,"HIV1 IIIb; H9, 168 h, read-out: Antiviral Effect (viable cells as % of uninfected controls), run 3, 4.84 ug/ml, source C (virus producing H9 cells), virus kill 10.0%",17%
same,Percent Control Cleavage of Nonapeptide HIV-1 Cleavage Site Fragment,HIV-2 protease,71%
"CCCCCCCCCCC[C@@H]1O[C@H]1C(=O)O [Example 39, (2R-trans)-3-Undecyloxiranecarboxylic Acid]",Percent control (tetrapeptide produced),porcine Renin,51%

# — patent US6153589A, “2,3-epoxy alcohols, acids and derivatives as anti retroviral chemotherapeutic agents” (The United States of America as represented by the …, priority 1992, dated 2000)
